In test [1] the test system is WM266-4 cells. Briefly: CellTiter-Glo cell viability assay, WM266-4 (including rescue assays). The format is cell-based, human. To be noted: for viability of WM266-4 cells: 24 h after addition. On the procedure:
Cells were plated in 384-well plates in 8 μL of media. Test compounds and dabrafenib (pharmacological assay control) were prepared as 10-point, 1:3 serial dilutions starting at 300 μM, then added to the cells (4 μL per well) using the Biomek Plates were incubated for 72 h at 37° C., 5% CO2 and 95% relative humidity. After incubation, 4 μL of CellTiter-Glo® (Promega cat #: G7570) were added to each well, and incubated for 15 min at room temperature. Luminescence was recorded using a Biotek Synergy H4 multimode microplate reader. Viability was expressed as a percentage relative to wells containing media only (0%) and wells containing cells treated with DMSO only (100%). Three parameters were calculated on a per-plate basis: (a) the signal-to-background ratio (SB); (b) the coefficient for variation [CV; CV=(standard deviation/mean)×100)] for all compound test wells; and (c) the Z′-factor (18). The IC50 value of the pharmacological control (dabrafenib, LC Laboratories #G-4408) was also calculated to ascertain the assay robustness. In case of viability rescue assays, cells were pre-treated with caspase, calpain, and autophagy inhibitors for 1-3 h before addition of test compounds. Time course viability assay was done with luminescence measurements performed at 4, 24, 48, and 72 h.

The test system of test [2] is caspase 8 in WM266-4 cells. Briefly: Caspase 8 activity assay. The format is cell-based, human. To be noted: 0 and 4 h. As to the method:
(§1) WM266-4 and M14 cells were plated in 384-well plates in 5 μL of complete media (EMEM and RPMI-1640, respectively). 5 μL of 200 μM 2155-14 and 2155-18 were added to the cells. Plates were incubated at 37° C., 5% CO2 and 95% relative humidity for various lengths of time. After incubation, 5 μL of caspase 3/7, caspase 8, and caspase 9 Glo® reagent (Promega cat #: G7570) were added to each well, and incubated for 15 min at room temperature. Luminescence was recorded using a Biotek Synergy H4 multimode microplate reader.

The subject of test [3] is A549 non-small cell lung cancer cell line. Briefly: CellTiter-Glo viability assay, A549 cells. Format: cell-based. To be noted: individual compounds. As to the method: (§2) Mixture libraries were solubilized in 3% DMSO/H2O and added to polypropylene 384 well plates (Greiner cat #781280). 1,250 CHO-K1, A549, or M14 cells were plated in 384-well plates in 5 μL of serum-free media (F12 for CHO-K1 and A549, DMEM for M14). Test compounds and gefitinib (pharmacological assay control) were prepared as 10-point, 1:3 serial dilutions starting at 300 then added to the cells (5 μL per well) using the Biomek NX^P. Plates were incubated for 72 h at 37° C., 5% CO2 and 95% RH. After incubation, 5 μL of CellTiter-Glo® (Promega cat #: G7570) were added to each well, and incubated for 15 min at room temperature. Luminescence was recorded using a Biotek Synergy H4 multimode microplate reader. Viability was expressed as a percentage relative to wells containing media only (0%) and wells containing cells treated with 1% DMSO only (100%). Three parameters were calculated on a per-plate basis: (a) the signal-to-background ratio (SB); (b) the coefficient for variation [CV; CV=(standard deviation/mean)×100)] for all compound test wells; and (c) the Z′-factor (18). The IC50 value of the pharmacological control (gefitinib, LC Laboratories #G-4408) was also calculated to ascertain the assay robustness. Time course viability assay was performed as described for library screening with luminescence measurements performed at 4, 24, 48, and 72 h.

Test [4] concerns LC3-II and beclin-1 in WM266-4 cells. Briefly: Western blotting for LC3 and beclin-1, WM266-4. The format is cell-based, human. To be noted: for LC3 and beclin-1, early time point: 30 min, 5-50 μM. The essentials: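 WM266-4 and M14 melanoma cells, grown in E-MEM or RPMI-1640 with 10% FBS, were analysed by immunoblot with chemiluminescent detection. Band intensities were normalised to β-actin and expressed as fold of untreated control.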
(Immunoblotting shows a protein as a band on a membrane.)

The subject of another test is M14 cells. Briefly: CellTiter-Glo viability assay, M14 melanoma cells (library screening, individual compounds, time course). To be noted: for IC50: Homo sapiens, M14. Format: cell-based, human. As to the method: as §2
On the technique in general: In ATP-based viability assays light output follows the ATP content of the culture.

In test [5] the test system is caspase 9 in WM266-4 cells. As to the kind of experiment: Caspase 9 activity assay. Format: cell-based, human. The settings on record: 0 and 4 h. On the procedure: as §1
In test [6] the test system is WM266-4 cells. Briefly: Cell staining for autophagy (autophagosome dye). Format: cell-based, human. The settings on record: for autophagy staining: 100 μM; for autophagy staining / morphology of unstained cells: 4 and 24 h; for morphology of unstained cells: bright field. As to the method:
WM266-4 cells were seeded at 10,000 cells/well in 0.1 mL of E-MEM medium supplemented with 10% FBS and 1% penicillin/streptomycin in 96 well plates (Greiner Bio-One CellStar cat #655180) and allowed to adhere overnight. After overnight incubation 100 μM 2155-14, 2155-18, 50 nM hnRNPH2 siRNA or 25 μM 2476-67.2 were added and incubated for various length of time. Cells were rinsed with warm PBS and stained with CYTO-ID® 1.0 Autophagy reagent (Enzo ENZ-51031-0050) and counterstained with DAPI. Cells were imaged using Cytation 5 imager (Biotek Inc, Winooski, Vt.) using GFP and DAPI filter sets. For % autophagic cells calculations cell counts were conducted using DAPI-stained nuclei and Object Sum Area value was obtained from at least 1,000 cells/well using DAPI channels. To obtain number of cells undergoing autophagy the cell count was conducted using GFP channel. Both GFP and DAPI cell counts were conducted using optimized algorithm in automatic mode. 8 replicate wells were used. % autophagic cells was calculated using Equation 1:% autophagic cells=100%*(number of cells, GFP channenumber of cells, DAPI channel)
To calculate staining intensity, the Object Sum Area value from GFP channel was obtained and divided by number of cells using DAPI channel. Both GFP and DAPI cell counts were conducted using optimized algorithm in automatic mode. 3 replicate wells were used.

The values below come from patent US11149028B2, “Methods for treating melanoma using small molecules” (NOVA SOUTHEASTERN UNIVERSITY, priority 2016, dated 2021).

Entries after “also recorded” stand apart in the source; their conditions may differ. Like-named read-outs stand apart in the source and are kept apart here. A value given as a limit tells only on which side of the number the result lay.

With `O=C1NC[C@H](Cc2ccccc2)N(C[C@@H]2CCCN2C[C@@H](CC2CCCCC2)N2C[C@H](Cc3ccc(O)cc3)N(CCc3ccccc3)C(=O)C2=O)C1=O` [Compound 2155-14, (S)-1((R)-1((S)-2-(((S)-6-benzyl-2,3-dioxopiperazin-1-yl)methyl)pyrrolidin-1-yl)-3-cyclohexylpropan-2-yl)-5-(4-hydroxybenzyl)-4-phenethylpiperazine-2,3-dione], the “inhibition of WM266-4 viability” value in the test with WM266-4 cells [1] (100 μM, 72 h) is “completely inhibited viability”. Also, the “viability after pre-incubation with caspase inhibitors” value in the test with WM266-4 cells [1] (24 h, 10 μM Z-IETD-FMK and Z-VAD-FMK) is “almost completely restored”. In the test on WM266-4 cells [1], the “viability of WM266-4 cells” value is recorded as “impaired”. Further, in the test on WM266-4 cells [1] (48 h of exposure), the “viability of WM266-4 cells with caspase inhibitor pre-treatment” value is given as roughly 25%. Moreover, the half-maximal inhibitory concentration (IC50) was 4 ± 0.5 µM with WM266-4 cells [1] (72 h); 1.5 ± 0.2 µM with WM266-4 cells [1] (72 h, listed as 2529-1); greater than 100 µM in test [3] (Homo sapiens, A549); 3.6 ± 0.3 µM with M14 cells (individual compounds, read-out: IC50 for M14 cells). In addition, in test [2], the “caspase 8 signal vs untreated control” value is reported as “significantly different from untreated control cells”. Moreover, in test [4], the “LC3 and beclin-1, early time point” value is “autophagy potentiation as compared to the untreated control was not observed; also recorded: No statistical significance between untreated control and test conditions”. For the same molecule, the “LC3-II level, WM266-4” value in test [4] (24 h, 5-200 μM) was “Dose dependent increase”. Moreover, the “beclin-1 level, WM266-4” value in test [4] (24 h, 5-200 μM) is on record as “Dose dependent increase”. The “inhibition of M14 cell viability at highest concentration” value in the test with M14 cells (100 μM) is listed as “not able to fully inhibit”. For the same molecule, the “caspase 9 signal vs untreated control” value in test [5] was “significantly different from untreated control cells”. Besides, the “autophagy staining” value in the test with WM266-4 cells [6] is “stained positive for autophagy as early as 4 h after compound addition; also recorded: At 24 h the intensity of autophagy staining increased; also recorded: stain positive for autophagy at 4 h”. Further, the “morphology of unstained cells” value in the test with WM266-4 cells [6] is reported as “exhibited traits of apoptosis; also recorded: extensive cell death”. The same molecule came in with a cells undergoing autophagy with WM266-4 cells [6] (quantitation of representative image, FIG. 18D) of 57%.
On to `O=C1NC[C@H](Cc2ccccc2)N(C[C@@H]2CCCN2C[C@H](Cc2ccccc2)N2C[C@H](Cc3ccc(O)cc3)N(CCC34CC5CC(CC(C5)C3)C4)C(=O)C2=O)C1=O` [Compound 2155-18, (S)-4-(2-(adamantan-1yl)ethyl)-1-((S)-1-((S)-2-(((S)-6-benzyl-2,3-dioxopiperazin-1-yl)methyl)pyrrolidin-1-yl)-3-phenylpropan-2-yl)-5-(4-hydroxybenzyl)piperazine-2,3-dione], for which the “viability of WM266-4 cells” value in the test with WM266-4 cells [1] was “impaired”. The “caspase 8 signal vs untreated control” value in test [2] is “significantly different from untreated control cells”. Also, in test [3], the “activity towards A549 cells” value is given as “improved activity”. Moreover, in test [4], the “LC3 and beclin-1, early time point” value is “No statistical significance between untreated control and test conditions”. In test [4] (24 h, 5-200 μM), the “LC3-II level, WM266-4” value is “dose dependent inhibitory effect on basal autophagy”. Besides, the concentration for half-maximal inhibition (IC50) in the test on M14 cells (read-out: IC50 for M14) was 0.745 ± 0.06 µM. The “activity towards M14 cells” value in the test with M14 cells (individual compounds) is “improved activity”. In addition, the “caspase 9 signal vs untreated control” value in test [5] is “significantly different from untreated control cells”. Also, in the test with WM266-4 cells [6], the “autophagy staining” value is reported as “did not stain positive for autophagy” and the “morphology of unstained cells” value is “exhibited traits of apoptosis; also recorded: less pronounced than 2155-14”.

As usually defined, the IC50 is the concentration at which inhibition is half-maximal.
